Results reported in patent US20080262043A1, “Solid Crystalline Form of Pantoprazole Free Acid, Salts Derived Therefrom and Process for Their Preparation” (MEDICHEM, S.A., priority 2005, published 2008).

Experiment: Solid-state stability of the crystalline form upon drying under vacuum
Assay type: physicochemical
Conditions: drying under vacuum at approximately 40° C. for approximately 2 hours

COc1ccnc(C[S+]([O-])c2nc3cc(OC(F)F)ccc3[nH]2)c1OC (stereo not shown) [Form III pantoprazole free acid, 5-(difluoromethoxy)-2-[[(3,4-dimethoxy-2-pyridinyl)methyl]sulfinyl]-1H-benzimidazole]
change in the crystalline structure upon drying: no change in the crystalline structure
